Test results from patent US6664279B2, “Remedies or preventives for liver diseases containing diaminotrifluoromethylpyridine derivatives” (Ishihara Sangyo Kaisha, Ltd., priority 2000, dated 2003).

How the values were obtained:
[1] = system: rat liver ischemia reperfusion hepatopathy model; test: Therapeutic effect on rat liver ischemia reperfusion hepatopathy model; format: in vivo
From the text: Therapeutic Effect on Rat Liver Ischemia Reperfusion Hepatopathy Model
The therapeutic effect of the compound 1 on rat hepatopathy model induced by partially subjecting the liver to ischemia reperfusion was examined.
(1) The compound 1 was used as a drug formulation. The formulation composition (content per one vial) was as follows.
(2) Crj:SD (IGS) male rats (7 weeks old) (Charles River Japan, Inc.) were anesthetized with ether, and while maintaining them anesthetized with gas-oxygen fluothane, the above drug formulation of the compound 1 diluted with 5% glucose (Lot. 9I78N, manufactured by Otsuka Pharmaceutical Factory, Inc.) so that the dose would be 10 mg/kg/hr as calculated as anhydride of the compound 1, was subcutaneously administered singly. Then, an osmotic pump (alzet osmotic pump 2001D, ALZA CORPORATION, U.S.A.) in which the above drug formulation of the compound 1 diluted with 5% glucose (Lot. 9I78N, manufactured by Otsuka Pharmaceutical Factory, Inc.) so that the dose would be 0.3 mg/kg/hr as calculated as anhydride of the compound 1 was put, was embedded in the dorsal cervical subcutaneous. To non-treated group rats, 5% glucose alone was administered similarly. […] The abdomen was closed, the rats were awaked, and after 90 minutes, the abdomen was opened up again under the above-described anesthesia, the clamp was removed and the rats were subjected to reperfusion. To pseudo-induced group rats, operation except for the ischemia reperfusion treatment was carried out. The abdomen was closed and the rats were awaked, and 6 hours after the reperfusion, aspartate aminotransferase (AST) and alanine aminotransferase (ALT), lactate dehydrogenase (LDH) and total bilirubin values in the blood serum were measured.

[2] = system: acetaminophen (APAP) induced mouse hepatopathy model; test: Therapeutic effect on mouse acetaminophen hepatopathy model; format: in vivo
From the text: Therapeutic Effect on Mouse Acetaminophen Hepatopathy Model
The therapeutic effect of N-(2-ethylsulfonylamino-5-trifluoromethyl-3-pyridyl)cyclohexanecarboxamide sodium salt hydrate (hereinafter referred to as compound 1) on acetaminophen (APAP) induced mouse hepatopathy model was examined.
To Crj: CD-1(ICR) male mice (6 weeks old) (Charles River Japan Inc.), APAP (Lot. No. 107H0332, manufactured by Sigma) dissolved with physiological saline (Lot No. 80909D manufactured by Fuso Pharmaceutical Industries, Ltd.) was intraperitoneally administered in an amount of the active ingredient of 300 mg/kg to induce hepatopathy. 3 Hours after the administration of APAP, the compound 1 dissolved in physiological saline was singly administered subcutaneously on the back in an amount of the active ingredient of 10 mg/kg. To non-treated group mice, physiological saline was similarly administered. 6 Hours after the administration of APAP, the blood was collected, and glutamic-oxaloacetic transaminase (GOT) and glutamic-pyruvic transaminase (GPT) values in the blood serum were measured.
In the present test, mice were kept on a fast from 20 hours before the administration of APAP until the completion of the test.

[3] = Crj:SD (IGS) male rats, 90 minutes ischemia of about 70% of liver, 10 mg/kg/hr s.c. singly then 0.3 mg/kg/hr by osmotic pump, 6 hours after reperfusion, N = 10
[4] = Crj:CD-1(ICR) male mice, APAP 300 mg/kg i.p., 10 mg/kg s.c. single dose 3 hours after APAP, blood 6 hours after APAP, N = 5

## CCS(=O)(=O)Nc1ncc(C(F)(F)F)cc1NC(=O)C1CCCCC1.O.[Na] [compound 1, N-(2-ethylsulfonylamino-5-trifluoromethyl-3-pyridyl)cyclohexanecarboxamide sodium salt hydrate]
[1]; [3]
  ALT (GPT) in blood serum (mean): 5436 IU/L
  AST (GOT) in blood serum (mean): 8669 IU/L
  LDH in blood serum (mean): 29601 IU/L
  Total bilirubin in blood serum (mean): 0.299 mg/dL
[1]; rat ischemia reperfusion hepatopathy model, versus non-treated group
  Effect on hepatopathy (increases in biochemical examination values), in words: alleviated
[2]; [4]
  GOT in blood serum (mean ± standard deviation): 530 ± 212 IU/L
  GPT in blood serum (mean ± standard deviation): 807 ± 603 IU/L
[2]; acetaminophen induced mouse hepatopathy model, 10 mg/kg s.c., versus non-treated group
  Effect on hepatopathy (increases in biochemical examination values), in words: hepatopathy was alleviated
